Experimental data published in publication PMC8484864 (Peptides, 2021).
Entries after “also recorded” stand apart in the source; their conditions may differ.

Columns and labels:
[1] = test system: apelin receptor; settings: SAR study of short ELA fragments; cited from earlier work
[2] = rat plasma in vitro; settings: cited from earlier work
[3] = test system: furin; experiment: buffer-based ELA-32 digestion study; settings: cited from earlier work
[4] = human plasma, pooled from four healthy human donors; settings: 37 °C, up to 240 min
[5] = human kidney homogenised in 50 mM HEPES solution, pH 7.4; settings: 37 °C, up to 120 min

| Sequence | binding to the apelin receptor (in words) [1] | fragment found [2] | fragment found [3] | cleaved bond [4] | fragment found [5] |
| --- | --- | --- | --- | --- | --- |
| LHSRVPFP [ELA-8, ELA-32 fragment from loss of N-terminal amino acids] | completely lost its ability to bind the apelin receptor |  |  |  |  |
| QRPVNLTMRRKLRKHNCLQRRCMPLHSRVPFP |  | ELA-22; also recorded: ELA-32(1-9) | ELA-11 | R-R and L-R, major, 60 min and R-K, first_seen, within 2 min and H-N, major, 60 min and Arg21-Cys22, major, 60 min and proline-phenylalanine | ELA-23, earliest time points; also recorded: ELA-17, 60 min |
